# How the values were obtained:
# Type in all cases: physicochemical
# [1] = Accelerated storage stability, 54° C. for 2 weeks (HPLC); details: 2 weeks at 54° C.
# Protocol: Sample 1 was stored at 54° C. for 2 weeks in a closed container.
# Sample 6 was stored at 54° C. for 2 weeks in a closed container.
# Sample 7 was stored at 54° C. for 2 weeks in a closed container.
# [2] = Solubility of Compound A and prothioconazole in benzyl acetate/AMD810 blends at 10° C. (HPLC); details: both actives saturated
# Protocol: A study of the Compound A and prothioconazole solubility in blends of benzyl acetate/AMD810 was conducted. To each solvent blend both actives were added until each was saturated and the resulting mixtures were then stored at 10° C. until equilibrium was obtained. Aliquots of the supernatant layer were taken from each sample, filtered (0.45 μm mesh) and analyzed by HPLC to determine the solution concentration of each active in the blends.
# [3] = Approximate (relative) solubility of active ingredients in organic solvents at ambient temperature; details: 0.2 g of Compound A mixed with 1.38 g of cyclohexanone
# Protocol: The approximate solubility of Compound A was determined by mixing a known mass of the active ingredient with an increasing mass of each solvent at ambient temperature. […] The solubility of Compound A in the solvents used in this screening procedure was generally classified within the following concentration ranges: […]
structure (smiles),measurement,setting,value
"COc1ccnc(C(=O)N[C@H]2COC(=O)[C@H](Cc3ccccc3)[C@@H](OC(=O)C(C)C)[C@H](C)OC2=O)c1OCOC(=O)C(C)C [Compound A, propanoic acid, 2-methyl-, [[4-methoxy-2-[[[(3S,7R,8R,9S)-9-methyl-8-(2-methyl-1-oxopropoxy)-2,6-dioxo-7-(phenylmethyl)-1,5-dioxonan-3-yl]amino]carbonyl]-3-pyridinyl]oxy]methyl ester]",Compound A after Storage (% retention),"[1]; composition wt %: Compound A 3.4, AMD 810 96.0, third solvent none",49^ % retention
same,Compound A after Storage (% retention),"[1]; composition wt %: Compound A 4.9, benzyl acetate 94.1, third solvent none",85^ % retention
same,Compound A after Storage (% retention),"[1]; composition wt %: Compound A 12.0, cyclohexanone 85.7",96^ % retention
same,Compound A after Storage (% retention),"[1]; wt %: Compound A 4.9, pyraclostrobin 6.3, benzyl acetate 41.2, AMD 810 22.2, cyclohexanone 9.8",98^ % retention
same,Compound A after Storage (% retention),"[1]; wt %: Compound A 5.0, pyraclostrobin 6.4, benzyl acetate 40.9, AMD 810 22.0, 2-ethyl hexanol 10.0",95^ % retention
same,Compound A after Storage (% retention),"[1]; wt %: Compound A 7.7, pyraclostrobin 9.8, benzyl acetate 37.1, AMD 810 20.0, cyclohexanone 9.6",97^ % retention
same,Compound A after Storage (% retention),"[1]; wt %: Compound A 7.8, pyraclostrobin 9.9, benzyl acetate 36.7, AMD 810 19.8, 2-ethyl hexanol 9.7",97^ % retention
same,Compound A Solubility at 10° C.,[2]; benzyl acetate 0 wt % in benzyl acetate/AMD810 blend,3.3 % w/w
same,Compound A Solubility at 10° C.,[2]; benzyl acetate 20 wt % in benzyl acetate/AMD810 blend,4.3 % w/w
same,Compound A Solubility at 10° C.,[2]; benzyl acetate 40 wt % in benzyl acetate/AMD810 blend,6.5 % w/w
same,Compound A Solubility at 10° C.,[2]; benzyl acetate 60 wt % in benzyl acetate/AMD810 blend,11.0 % w/w
same,Compound A Solubility at 10° C.,[2]; benzyl acetate 80 wt % in benzyl acetate/AMD810 blend,12.0 % w/w
same,Compound A content of clear solution in cyclohexanone,[3],12.6 % w/w

# Reference: patent US20160183527A1, “FUNGICIDAL COMPOSITIONS” (Dow AgroSciences LLC, priority 2014, published 2016)
